Assay results from US6184374A, “Targeted cytotoxic anthracycline analogs” (priority 1998, dated 2001).
pIC50, pKi: −log10 of the molar value.

Assays:
[1] = tested on: estrogen independent MXT mouse mammary cancers; test: Single treatment of estrogen independent MXT mouse mammary cancers (KS-55); type: in vivo; conditions: single dose of 650 nmol/20 g mouse (as printed in text)
Description: In order to determine the maximum tolerated doses and compare the effects, MXT (3.2) ovex tumor pieces (1 mm^3) were implanted s.c. in female B6 D2 F1 mice. One day after transplantation the mice were randomly divided into groups of five animals and they were treated with a single injection i.p. The groups and doses are shown in the Table 25-1. […] The compounds were dissolved in 0.1% TFA (pH: 2.0). Tumor volume was measured on days 10, 13, 17, and 20.

breast cancer receptors = target: T1, breast cancer receptors (Homo sapiens, UniProt P30968); test: Receptor binding potency, breast cancer receptors
T1 construct: from tissue
T1 sequence (P30968 1-328): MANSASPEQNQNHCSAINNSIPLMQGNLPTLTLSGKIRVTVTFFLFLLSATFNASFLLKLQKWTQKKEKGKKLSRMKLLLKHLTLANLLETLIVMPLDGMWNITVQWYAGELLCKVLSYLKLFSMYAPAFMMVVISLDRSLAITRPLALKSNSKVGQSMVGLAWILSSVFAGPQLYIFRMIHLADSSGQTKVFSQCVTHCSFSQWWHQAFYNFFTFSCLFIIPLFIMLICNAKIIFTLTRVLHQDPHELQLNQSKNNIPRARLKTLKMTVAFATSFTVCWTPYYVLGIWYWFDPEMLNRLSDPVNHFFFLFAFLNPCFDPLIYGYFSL

rat pituitary receptors = target: T2, rat pituitary receptors (Rattus norvegicus, UniProt P30969); test: Receptor binding potency, rat pituitary receptors
T2 construct: from tissue; host or cells: rat pituitary
T2 sequence (P30969 1-327): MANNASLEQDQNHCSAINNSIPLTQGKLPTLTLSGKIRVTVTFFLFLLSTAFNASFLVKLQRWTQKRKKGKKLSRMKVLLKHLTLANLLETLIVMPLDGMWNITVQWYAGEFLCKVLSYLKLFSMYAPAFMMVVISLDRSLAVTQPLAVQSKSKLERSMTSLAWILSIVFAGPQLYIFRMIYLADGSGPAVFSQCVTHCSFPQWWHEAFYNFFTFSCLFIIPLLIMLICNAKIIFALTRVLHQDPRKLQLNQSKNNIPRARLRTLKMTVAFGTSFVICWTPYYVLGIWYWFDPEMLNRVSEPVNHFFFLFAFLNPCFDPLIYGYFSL

[2] = tested on: estrogen independent MXT mouse mammary cancers; test: Effect of cytotoxic LH-RH analogs on estrogen independent MXT mouse mammary cancers (KS-47); type: in vivo; conditions: daily dose of 30 nmol (equimolar) i.p. for 12 days
Description: MXT (3.2) ovex tumor pieces (1 mm^3) were transplanted in female B6 D2 F1 mice. The treatment started one day after transplantation and was continued for 12 days by i.p. injections once a day. Tumors were measured on days 10, 14 and 18, and tumor volume was calculated.

LH-responses = test: Hormonal activity of LH-RH analogs (LH-responses rel. to LH-RH); type: cell-based; conditions: relative to LH-RH = 1
[3] = target: T3, bombesin receptors on Swiss 3T3 cell line (Mus musculus, UniProt P21729); test: Displacement of [125I-Tyr4]BN binding on Swiss 3T3 cells
T3 construct: host or cells: Swiss 3T3 cells
T3 sequence (P21729 whole entry): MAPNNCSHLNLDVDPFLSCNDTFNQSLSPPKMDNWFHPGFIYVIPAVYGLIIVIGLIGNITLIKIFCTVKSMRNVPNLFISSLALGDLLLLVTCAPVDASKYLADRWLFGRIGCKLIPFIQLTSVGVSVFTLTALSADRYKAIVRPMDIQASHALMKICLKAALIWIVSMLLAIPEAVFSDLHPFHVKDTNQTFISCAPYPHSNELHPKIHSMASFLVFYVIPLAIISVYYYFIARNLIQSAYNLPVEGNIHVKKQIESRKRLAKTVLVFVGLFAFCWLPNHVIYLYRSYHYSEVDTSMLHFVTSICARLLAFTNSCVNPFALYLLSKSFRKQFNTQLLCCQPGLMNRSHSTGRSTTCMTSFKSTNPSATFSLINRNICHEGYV
Description: Radio iodination of [Tyr^4 ]BN (Sigma) using a Bio-Rad Enzymobead Radio lodination kit and isolation of mono-iodinated [^125 l-Tyr^4 ]BN was performed as described earlier (1). […] Three to five days after seeding, the confluent cells were washed twice with Hanks' Balanced Salt Solution (HBSS) and incubated for 30 min at 37° C. with 50 pM [^125 l-Tyr^4 ]BN in the absence or presence of several concentrations of unlabeled competitors (Q6^14 gB or BN) in a total volume of 0.5 ml binding buffer (DMEM with 50 mM HEPES, 0.1% bovine serum albumin (BSA), 5 mM MgCl2 and 100 μg/ml bacitracin, pH: 7.4). Nonspecific binding was determined in the presence of 1 μM unlabeled ligand. After three washings with ice-cold HBSS containing 0.1% BSA (pH: 7.4) the cells were detached with 0.05% Trypsin/0.53 mM EDTA solution and transferred to tubes. Radioactivity was measured with a gamma-counter (Micromedic Systems Inc, Huntsville, Ala.). Binding data were evaluated using radio ligand binding analysis programs by McPherson (4). Ki values presented in Table 23-1, were calculated according to the formula of Cheng and Prusoff (5).

## COc1cccc2c1C(=O)c1c(O)c3c(c(O)c1C2=O)C[C@@](O)(C(=O)COC(=O)CCCC(=O)NCCCC[C@@H](NC(=O)[C@H](Cc1ccc(O)cc1)NC(=O)[C@H](CO)NC(=O)[C@H](Cc1c[nH]c2ccccc12)NC(=O)[C@H](Cc1c[nH]cn1)NC(=O)[C@@H]1CCC(=O)N1)C(=O)N[C@@H](CC(C)C)C(=O)N[C@@H](CCCNC(=N)N)C(=O)N1CCC[C@H]1C(=O)NCC(N)=O)C[C@@H]3O[C@H]1C[C@H](N)[C@H](O)[C@H](C)O1 [Q1^14 gL, [D-Lys^6 (DOX^14 -O-glt)]LH-RH]
[1]
  Toxicity: nontoxic
Breast cancer receptors
  pIC50: 8.14
Rat pituitary receptors
  pIC50: 8.64

## CC(C)C[C@H](NC(=O)[C@@H](CCCCN)NC(=O)[C@H](Cc1ccc(O)cc1)NC(=O)[C@H](CO)NC(=O)[C@H](Cc1c[nH]c2ccccc12)NC(=O)[C@H](Cc1c[nH]cn1)NC(=O)[C@@H]1CCC(=O)N1)C(=O)N[C@@H](CCCNC(=N)N)C(=O)N1CCC[C@H]1C(=O)NCC(N)=O [[D-Lys^6]LH-RH]
[2]
  Effect on tumor growth: did not affect tumor growth
  Mean survival after transplantation: 23.5 days
  Mean tumor volume on day 10: 165 mm^3
  Mean tumor volume on day 14: 1348 mm^3
  Mean tumor volume on day 18: 4003 mm^3
Breast cancer receptors
  pIC50: 8.74
LH-responses
  Hormonal activity (LH-responses rel. to LH-RH = 1): 8

## COc1cccc2c1C(=O)c1c(O)c3c(c(O)c1C2=O)C[C@@](O)(C(=O)COC(=O)CCCC(=O)N[C@@H](CCC(N)=O)C(=O)N[C@@H](Cc1c[nH]c2ccccc12)C(=O)N[C@@H](C)C(=O)N[C@H](C(=O)NCC(=O)N[C@@H](Cc1c[nH]cn1)C(=O)N[C@H](CN[C@@H](CC(C)C)C(N)=O)CC(C)C)C(C)C)C[C@@H]3O[C@H]1C[C@H](N2C=CCC2)[C@H](O)[C@H](C)O1 [Q6^14 gB, 2-pyrrolino-DOX^14 -O-glt-Gln-Trp-Ala-Val-Gly-His-Leu.PSI.(CH2 --NH)Leu-NH2]
[3]
  pKi: 9.00

## COc1cccc2c1C(=O)c1c(O)c3c(c(O)c1C2=O)C[C@@](O)(C(=O)COC(=O)CCCC(=O)NCCCC[C@@H](NC(=O)[C@H](Cc1ccc(O)cc1)NC(=O)[C@H](CO)NC(=O)[C@H](Cc1c[nH]c2ccccc12)NC(=O)[C@H](Cc1c[nH]cn1)NC(=O)[C@@H]1CCC(=O)N1)C(=O)N[C@@H](CC(C)C)C(=O)N[C@@H](CCCNC(=N)N)C(=O)N1CCC[C@H]1C(=O)NCC(N)=O)C[C@@H]3O[C@H]1C[C@H](N2C=CCC2)[C@H](O)[C@H](C)O1 [Q6^14 gL, [D-Lys^6 (2-pyrrolino-DOX^14 -O-glt)]LH-RH]
Breast cancer receptors
  pIC50: 8.17
Rat pituitary receptors
  pIC50: 8.25
